Measured values: patent US20250034165A1, “COMPOUND CONTAINING CYCLOALKYL OR HALOALKYL” (CHIA TAI TIANQING PHARMACEUTICAL GROUP CO., LTD., priority 2021, published 2025)

Key:
Format in all cases: biochemical
[1] = biological target: EGFR (d746-750/T790M/C797S) (Homo sapiens (Human), UniProt P00533, C797S/DEL746-750/T790M); experiment: Inhibitory activity for EGFR (d746-750/T790M/C797S) kinase; conditions: ATP 5 μM; read-out: EGFR(d19/T790M/C797S) (IC50)
Summary of the method: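 EGFR d746-750/T790M/C797S (0.03 ng/μL final) preincubated 30 min with compound (10 nM–0.0024 nM, 4-fold, 7 points). Reaction with 5 μM ATP and 0.1 μM ULight-poly GT, 2 h at room temperature; EDTA stop, Eu-anti-phosphotyrosine TR-FRET read at 665 nm, IC50 by four-parameter fit.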

EGFR (WT) = EGFR (WT) (Homo sapiens (Human), UniProt P00533); experiment: Inhibitory activity for EGFR (WT) kinase; conditions: ATP 5 μM
Chain of EGFR (WT) (P00533 25-1210): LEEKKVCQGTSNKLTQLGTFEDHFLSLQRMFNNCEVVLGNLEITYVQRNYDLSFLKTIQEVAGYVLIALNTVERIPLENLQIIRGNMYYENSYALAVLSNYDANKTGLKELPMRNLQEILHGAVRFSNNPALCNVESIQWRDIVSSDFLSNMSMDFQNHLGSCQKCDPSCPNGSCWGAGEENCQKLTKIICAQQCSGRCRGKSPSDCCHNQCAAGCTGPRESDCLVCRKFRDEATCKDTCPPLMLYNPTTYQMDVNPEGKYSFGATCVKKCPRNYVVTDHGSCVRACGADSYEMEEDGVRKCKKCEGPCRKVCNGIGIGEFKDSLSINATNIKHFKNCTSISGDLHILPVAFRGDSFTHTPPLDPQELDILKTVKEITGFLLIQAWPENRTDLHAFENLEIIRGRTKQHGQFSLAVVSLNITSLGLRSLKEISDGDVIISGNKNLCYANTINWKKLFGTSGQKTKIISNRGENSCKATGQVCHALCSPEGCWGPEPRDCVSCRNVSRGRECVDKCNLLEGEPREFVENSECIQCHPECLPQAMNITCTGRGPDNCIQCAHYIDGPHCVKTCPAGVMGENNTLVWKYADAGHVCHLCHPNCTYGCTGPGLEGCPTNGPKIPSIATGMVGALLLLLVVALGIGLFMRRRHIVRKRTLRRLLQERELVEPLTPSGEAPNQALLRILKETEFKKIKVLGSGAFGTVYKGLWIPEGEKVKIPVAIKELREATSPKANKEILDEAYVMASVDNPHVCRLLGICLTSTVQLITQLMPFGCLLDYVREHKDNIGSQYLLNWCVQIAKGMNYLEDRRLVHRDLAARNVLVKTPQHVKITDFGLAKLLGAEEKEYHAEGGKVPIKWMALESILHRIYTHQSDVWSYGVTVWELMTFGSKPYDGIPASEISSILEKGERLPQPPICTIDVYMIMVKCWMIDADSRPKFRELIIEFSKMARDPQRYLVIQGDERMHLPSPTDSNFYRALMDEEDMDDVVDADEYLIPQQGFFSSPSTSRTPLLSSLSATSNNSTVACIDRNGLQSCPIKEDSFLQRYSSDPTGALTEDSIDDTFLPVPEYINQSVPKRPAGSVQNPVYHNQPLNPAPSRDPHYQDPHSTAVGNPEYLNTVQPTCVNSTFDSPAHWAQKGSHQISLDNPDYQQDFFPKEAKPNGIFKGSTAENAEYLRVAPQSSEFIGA
Description: A 50 ng/μL EGFR (WT, Carna) stock solution was diluted with a kinase buffer (50 mM HEPES, 10 mM MgCl2, 2 mM DTT, 1 mM EGTA, 0.01% Tween 20), and 6 μL of 1.67× working solution at 0.005 ng/μL (final concentration: 0.003 ng/μL) was added to each well. Different compounds dissolved in DMSO were added to the wells using a nanoliter pipettor, resulting in the final concentrations of the compounds of 100 nM to 0.0244 nM (4-fold gradient for 7 concentrations in total), and blank control wells (without enzyme) and negative control wells (with enzyme, plus vehicle DMSO) were set, 2 replicate wells for each concentration. After enzyme was reacted with the compound or vehicle for 30 min, 5×ATP at 25 μM (final concentration: 5 μM, Sigma) prepared with a kinase buffer was mixed with 5× substrate at 0.5 μM (final concentration: 0.1 μM, ULight-poly GT, PerkinElmer) at a ratio of 1:1 (v:v), and the mixture was added to each well at 4 μL/well. After being sealed with a film, the plate was incubated at room temperature for 2 h, and then 5 μL of 4×EDTA at 40 mM (final concentration: 10 mM) was added to each well. After the plate was incubated for 5 min at room temperature, 5 μL of 4× detection reagent at 8 nM (final concentration: 2 nM, Eu-anti-phospho-tyrosine antibody, PerkinElmer) was added to each well. After being incubated at room temperature for 1 h, the plate was read using a PerkinElmer Envision multi-mode microplate reader (excitation: 320 nm, emission: 665 nm), and IC50 was calculated by four-parameter fitting.

[2] = biological target: EGFR (d746-750 (d19)/T790M) (Homo sapiens (Human), UniProt P00533, DEL746-750/T790M); experiment: Inhibitory activity for EGFR (d746-750 (d19)/T790M) kinase; conditions: ATP 5 μM
Chain of EGFR (d746-750 (d19)/T790M) (P00533 other isoform, or with tags, fused parts or gaps T790M/del 1-668/del 746-750 limits assumed): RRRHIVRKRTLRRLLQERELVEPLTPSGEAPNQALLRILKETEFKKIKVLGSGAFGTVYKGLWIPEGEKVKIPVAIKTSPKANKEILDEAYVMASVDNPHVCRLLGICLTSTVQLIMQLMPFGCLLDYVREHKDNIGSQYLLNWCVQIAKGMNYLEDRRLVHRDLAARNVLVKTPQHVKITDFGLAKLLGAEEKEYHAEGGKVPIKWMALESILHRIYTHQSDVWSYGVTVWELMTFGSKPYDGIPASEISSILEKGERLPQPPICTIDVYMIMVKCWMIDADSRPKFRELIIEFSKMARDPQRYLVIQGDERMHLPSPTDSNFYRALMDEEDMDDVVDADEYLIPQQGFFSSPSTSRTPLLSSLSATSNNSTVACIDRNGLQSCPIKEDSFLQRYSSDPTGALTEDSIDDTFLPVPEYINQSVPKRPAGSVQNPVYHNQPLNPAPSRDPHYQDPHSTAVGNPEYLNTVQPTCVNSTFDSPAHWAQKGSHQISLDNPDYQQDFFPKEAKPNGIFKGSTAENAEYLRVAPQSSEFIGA
Summary of the method: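 Recombinant EGFR d746-750/T790M (0.003 ng/μL final) preincubated 30 min with compound (10 to 0.0024 nM, 4-fold steps), then 5 μM ATP and 0.1 μM ULight-poly GT added for 2 h at room temperature. EDTA stop, Eu-anti-phosphotyrosine TR-FRET read (665 nm); IC50 by four-parameter fit.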

Chain of EGFR (d746-750/T790M/C797S) (P00533 other isoform, or with tags, fused parts or gaps T790M/C797S/del 1-694/del 746-750 limits assumed): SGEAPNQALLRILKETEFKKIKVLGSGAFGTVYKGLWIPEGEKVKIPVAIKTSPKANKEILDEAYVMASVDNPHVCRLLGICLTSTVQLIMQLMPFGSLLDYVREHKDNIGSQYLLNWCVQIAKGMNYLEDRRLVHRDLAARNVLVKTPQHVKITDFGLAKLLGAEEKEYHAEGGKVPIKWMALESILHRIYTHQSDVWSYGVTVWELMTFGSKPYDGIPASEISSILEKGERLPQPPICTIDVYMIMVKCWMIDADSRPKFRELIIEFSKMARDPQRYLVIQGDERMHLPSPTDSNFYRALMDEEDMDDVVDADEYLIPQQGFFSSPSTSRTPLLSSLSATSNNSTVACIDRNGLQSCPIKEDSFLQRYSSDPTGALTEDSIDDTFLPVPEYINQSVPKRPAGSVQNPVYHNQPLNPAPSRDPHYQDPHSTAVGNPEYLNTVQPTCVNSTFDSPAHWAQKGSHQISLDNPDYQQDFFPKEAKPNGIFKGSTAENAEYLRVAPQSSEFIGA

SMILES | IC50 [1] [pM] | IC50 (EGFR (WT)) [pM] | IC50 [2] [pM]
C[C@H](Nc1ccc2c(c1)N/C1=N\C(=O)c3cc(F)nc(c3)-c3cnn(C)c3OCCC[C@@H](C3CC3)CN12)C(F)(F)F [Example 9] | 450 | 560 | 280
Cc1cc2cc(n1)-c1cnn(C)c1OCCC[C@@H](C1CC1)CN1/C(=N/C2=O)Nc2ccc(C=CCCN(C)C)cc21 [Example 24] | 21 | 1100 | 16
Cc1cc2cc(n1)-c1cnn(C)c1OCCC[C@@H](C1CC1)CN1/C(=N/C2=O)Nc2cc(N[C@H]3CC[C@H](N(C)C)CC3)ccc21 [Example 25] | 14 | 49 | 11
Cc1cc2cc(n1)-c1cnn(C)c1OCCC[C@@H](C1CC1)CN1/C(=N/C2=O)Nc2cc(N[C@H]3CC[C@@H](N(C)C)CC3)ccc21 [Example 26] | 17 | 240 | 11
Cc1cc2cc(n1)-c1cnn(C)c1OCCC[C@@H](C1CC1)CN1/C(=N/C2=O)Nc2ccc(NCCN(C)C)cc21 [Example 28] | 11 | – | 7.2
Cc1cc2cc(n1)-c1cnn(C)c1OCCC[C@@H](C1CC1)CN1/C(=N/C2=O)Nc2cc(NC3(C)COC3)ccc21 [Example 29] | 15 | – | 8.9
Cc1cc2cc(n1)-c1cnn(C)c1OCCC[C@@H](C1CC1)CN1/C(=N/C2=O)Nc2cc(N[C@H](C)C3COC3)ccc21 [Example 39] | 24 | 610 | 12
Cc1cc2cc(n1)-c1cnn(C)c1OC[C@H](C1CC1)CCCn1c(nc3ccc(NC4COC4)cc31)NC2=O [Example 59] | 74 | 5900 | 40
Cc1cc2cc(n1)-c1cnn(C)c1OC[C@H](C1CC1)CCCn1c(nc3cc(NC4COC4)ccc31)NC2=O [Example 60] | 70 | 8000 | 39
Cc1cc2cc(n1)-c1cnn(C)c1OCCC[C@@H](C1CC1)CN1/C(=N/C2=O)Nc2cc(NC3(C(F)(F)F)COC3)ccc21 [Example 88] | 181 | 6000 | 44
